Results from patent US10905125B2, “Biocidal compositions and method of treating water using thereof” (BWA WATER ADDITIVES UK LIMITED, priority 2014, dated 2021).

Legend:
[1] = system: Desulfovibrio vulgaris; assay: Log10 reduction of viable anaerobe cells in saline phosphate buffer suspension (serial dilution into API RP 38 media vials); type: cell-based; conditions: for Log10 Reduction Anaerobes: pH 7.5 phosphate buffer, room temperature; for efficacy against the anaerobe Desulfovibrio vulgaris (in words): agent alone
Procedure: (§1) A suspension of Desulfovibrio vulgaris plus Enterobacter aerogenes bacteria containing from 1××10^6 to 1×10^8 cells/mL was prepared in sterile pH 7.5 phosphate buffer containing varying levels of sodium chloride to give the desired total dissolved solids (TDS) concentration. Aliquots of this suspension were dosed with the indicated concentrations of a phosphonium compound and a hypohalite compound with the concentrations being measured as ppm by weight of the stated compounds added to the dosed suspension. The mixtures were allowed to stand at room temperature. At the designated contact times, each mixture was sampled to determine the total number of viable cells of both Desulfovibrio vulgaris and Enterobacter aerogenes by serial 10-fold dilution into API RP 38 media vials and anaerobic acid producing media vials, respectively. The vials were incubated at 37° C. for 72 hours. Results were recorded as cells per millilitre.
(§2) Aqueous media inoculated with anaerobe and facultative anaerobe culture and having a TDS of 10,000 mg l^−1; 20,000 mg l^−1; or 30,000 mg l^−1 was treated with treatment agents comprising: (i) sodium hypochlorite; (ii) tri n-butyl n-tetradecyl phosphonium chloride (TTPC) or (iii) a combination of sodium hypochlorite and TTPC.
(§3) TTPC was used in the form of Bellacide 355, an aqueous composition of TTPC and water consisting of water and […] of TTPC available from BWA Water Additives.
(§4) Sodium hypochlorite was used in the form of Clorox, an aqueous composition of sodium hypochlorite and water consisting of water and 6% by weight sodium hypochlorite available from The Clorox Company.
(§5) The efficacy of the treatment agents was evaluated by measuring the Log 10 Reduction of the anaerobe Desulfovibrio vulgaris and the facultative anaerobe Enterobacter aerogenes [after contact times of 10 and 30 minutes as detailed in Table 1. For TTPC and sodium hypochlorite the stated ppm values relate to the amount added. The addition of 35 ppm sodium hypochlorite to the aqueous system provided 2 ppm of free sodium hypochlorite in the treated aqueous system.

[2] = system: Enterobacter aerogenes; assay: Log10 reduction of viable facultative anaerobe cells in saline phosphate buffer suspension (serial dilution into anaerobic acid producing media vials); type: cell-based; conditions: for Log10 Reduction Facultative Anaerobes: pH 7.5 phosphate buffer, room temperature; for efficacy against the facultative anaerobe Enterobacter aerogenes (in words): agent alone
Procedure: as §1, §2, §3, §4, §5

[3] = TDS 30,000 mg l-1, contact time 30 minutes
[4] = TDS 30,000 mg l-1, contact time 10 minutes
[5] = TDS 20,000 mg l-1, contact time 30 minutes, listed as 3 (comparative)
[6] = TDS 30,000 mg l-1, contact times of 10 and 30 minutes
[7] = TDS 20,000 mg l-1, contact time 30 minutes, listed as 4 (comparative)

[Na+].[O-]Cl [Example 6] was tested. Which “Log10 Reduction Anaerobes” value [1, 3] did it give?
Its value is 3.

What about the “Log10 Reduction Facultative Anaerobes” value [2, 3] of the same compound?
The value was 3.

[Na+].[O-]Cl [Example 11] was tested. Which “Log10 Reduction Anaerobes” value [1, 4] did it give?
Its value is 5.

And the “Log10 Reduction Facultative Anaerobes” value [2, 4]?
Its value is 2.

How did the “Log10 Reduction Anaerobes” value [1, 5] turn out when CCCCCCCCCCCCCC[P+](CCCC)(CCCC)CCCC.[Cl-] [Example 3] was run?
Its value is 3.

And the “Log10 Reduction Facultative Anaerobes” value [2, 5]?
Its value is 0.

OCl [Sodium hypochlorite, sodium hypochlorite] was tested. Which “efficacy against the anaerobe Desulfovibrio vulgaris (in words)” value [1, 6] did it give?
The value was “some efficacy”.

And the “efficacy against the facultative anaerobe Enterobacter aerogenes (in words)” value [2, 6]?
The value was “some efficacy”.

For CCCCCCCCCCCCCC[P+](CCCC)(CCCC)CCCC.[Cl-] [Example 4], which “Log10 Reduction Anaerobes” value [1, 7] is on record?
The value was 6.

What about the “Log10 Reduction Facultative Anaerobes” value [2, 7] of the same compound?
The value was 5.

CCCCCCCCCCCCCC[P+](CCCC)(CCCC)CCCC.[Cl-] [Example 5] was tested. Which “Log10 Reduction Anaerobes” value [1, 3] did it give?
The value was 0.

And the “Log10 Reduction Facultative Anaerobes” value [2, 3]?
The value was 0.

How did the “Log10 Reduction Facultative Anaerobes” value ([2]; TDS 10,000 mg l-1, contact time 30 minutes, listed as 2 (comparative)) turn out when CCCCCCCCCCCCCC[P+](CCCC)(CCCC)CCCC.[Cl-] [Example 2] was run?
The value was 8.

For CCCCCCCCCCCCCC[P+](CCCC)(CCCC)CCCC.[Cl-] [TTPC, tri n-butyl n-tetradecyl phosphonium chloride], which “efficacy against the anaerobe Desulfovibrio vulgaris (in words)” value [1, 3] is on record?
The value was “ineffective”.

What about the “efficacy against the facultative anaerobe Enterobacter aerogenes (in words)” value [2, 3] of the same compound?
The value was “ineffective”.

Which “Log10 Reduction Anaerobes” value ([1]; TDS 10,000 mg l-1, contact time 30 minutes) does the source give for CCCCCCCCCCCCCC[P+](CCCC)(CCCC)CCCC.[Cl-] [Example 1] here?
Its value is 6.

And the “Log10 Reduction Facultative Anaerobes” value ([2]; TDS 10,000 mg l-1, contact time 30 minutes, listed as 1 (comparative))?
The value was 6.
